Our source for the hydrolysis by heparanase values is article PMC5590105 (Chemical communications (Cambridge, England), 2017).

Each structure is given as a SMILES string.

This test deals with T1, heparanase (Homo sapiens, UniProt Q9Y251).
T1 sequence (Q9Y251 158-543 limits assumed): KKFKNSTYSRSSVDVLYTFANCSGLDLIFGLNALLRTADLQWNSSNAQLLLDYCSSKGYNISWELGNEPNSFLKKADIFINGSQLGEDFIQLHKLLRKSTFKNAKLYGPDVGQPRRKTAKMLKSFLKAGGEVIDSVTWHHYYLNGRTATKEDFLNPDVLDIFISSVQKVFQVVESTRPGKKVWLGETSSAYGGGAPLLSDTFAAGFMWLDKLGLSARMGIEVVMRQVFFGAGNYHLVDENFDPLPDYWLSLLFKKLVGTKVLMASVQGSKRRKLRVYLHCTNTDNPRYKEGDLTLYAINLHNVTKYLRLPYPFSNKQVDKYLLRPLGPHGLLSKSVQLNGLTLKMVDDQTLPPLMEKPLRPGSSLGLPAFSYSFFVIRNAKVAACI
T1 sequence (Q9Y251 36-109 limits assumed): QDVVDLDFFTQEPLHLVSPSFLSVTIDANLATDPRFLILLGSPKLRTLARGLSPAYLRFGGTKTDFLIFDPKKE
Nature of the test: colorimetric WST-1 assay of cleavage by heparanase. The conditions noted are these: WST-1 colorimetric assay, over 21 h. It is filed as biochemical. A general note: Tetrazolium assays rely on reduction of a dye to a coloured formazan, in cell work by metabolically active cells.

As to `CO[C@H]1O[C@H](COS(=O)(=O)O)[C@@H](O[C@@H]2O[C@@H](C(=O)O)[C@@H](O[C@H]3O[C@H](COS(=O)(=O)O)[C@@H](O[C@@H]4O[C@H](C(=O)O)[C@@H](O[C@H]5O[C@H](COS(=O)(=O)O)[C@@H](O)[C@H](O)[C@H]5NS(=O)(=O)O)[C@H](O)[C@H]4O)[C@H](OS(=O)(=O)O)[C@H]3NS(=O)(=O)O)[C@H](O)[C@H]2OS(=O)(=O)O)[C@H](O)[C@H]1NS(=O)(=O)O` [Fondaparinux], the hydrolysis by heparanase entry is on record as “readily cleaved by heparanase”.
